Numbers after ± are expanded uncertainties.
Columns and labels:
[1] = xn = mol fraction of the nth substance listed; conditions: 101 kPa, Liquid, x1 = 1; for speed of sound: Pulse-echo method
[2] = refractive index (Na D-line) (dimensionless); xn = mol fraction of the nth substance listed; conditions: 101 kPa, Liquid, x1 = 1
[3] = 101 kPa, Liquid; for viscosity: Capillary tube (Ostwald / Ubbelohde) method; for speed of sound: Pulse-echo method
[4] = refractive index (Na D-line) (dimensionless); conditions: 101.33 kPa, Liquid

Clc1ccccc1Cl [1,2-dichlorobenzene] + CCCCCCC(C)O
Conditions | mass density, [1] [kg/m3] | refractive index, [2] | speed of sound, [1] [m/s] | viscosity, [1] [mPa·s]
298.15 K | 1300.3 ± 0.87 | 1.546 ± 0.0012 | 1281.6 ± 1.3 | 1.314 ± 0.047
303.15 K | 1294.72 ± 0.86 | 1.544 ± 0.0012 | 1265.2 ± 1.3 | 1.235 ± 0.045
308.15 K | 1289.13 ± 0.85 | 1.541 ± 0.0012 | 1245.9 ± 1.3 | 1.144 ± 0.042

CCCCCCC(C)O (configuration not stated) [2-octanol]
Conditions | mass density, [3] [kg/m3] | refractive index, [4] | speed of sound, [3] [m/s] | viscosity, [3] [mPa·s]
298.15 K | 816.39 ± 0.57 | 1.4226 ± 0.0012 | 1307 ± 1 | 6.566 ± 0.072
303.15 K | 812.58 ± 0.58 | 1.4206 ± 0.0012 | 1289 ± 1 | 5.178 ± 0.061
308.15 K | 808.74 ± 0.59 | 1.4185 ± 0.0012 | 1271 ± 1 | 4.162 ± 0.051

Clc1ccccc1Cl [1,2-dichlorobenzene]
Conditions | mass density, [3] [kg/m3] | refractive index, [4] | speed of sound, [3] [m/s] | viscosity, [3] [mPa·s]
298.15 K | 1300.3 ± 0.87 | 1.546 ± 0.0012 | 1281.6 ± 1.3 | 1.314 ± 0.01
303.15 K | 1294.72 ± 0.86 | 1.544 ± 0.0012 | 1265.2 ± 1.3 | 1.235 ± 0.01
308.15 K | 1289.13 ± 0.85 | 1.541 ± 0.0012 | 1245.9 ± 1.3 | 1.144 ± 0.009

Clc1cccc(Cl)c1 [1,3-dichlorobenzene] + CCCCCCC(C)O
Conditions | mass density, [1] [kg/m3] | refractive index, [2] | speed of sound, [1] [m/s] | viscosity, [1] [mPa·s]
298.15 K | 1283.45 ± 0.84 | 1.544 ± 0.0012 | 1255 ± 1.3 | 1.014 ± 0.075
303.15 K | 1277.79 ± 0.82 | 1.541 ± 0.0012 | 1238.4 ± 1.3 | 0.946 ± 0.071
308.15 K | 1272.1 ± 0.81 | 1.538 ± 0.0012 | 1221.9 ± 1.3 | 0.891 ± 0.067

Clc1cccc(Cl)c1 [1,3-dichlorobenzene]
Conditions | mass density, [3] [kg/m3] | refractive index, [4] | speed of sound, [3] [m/s] | viscosity, [3] [mPa·s]
298.15 K | 1283.45 ± 0.84 | 1.544 ± 0.0012 | 1255 ± 1.3 | 1.014 ± 0.009
303.15 K | 1277.79 ± 0.82 | 1.541 ± 0.0012 | 1238.4 ± 1.3 | 0.946 ± 0.008
308.15 K | 1272.1 ± 0.81 | 1.538 ± 0.0012 | 1221.9 ± 1.3 | 0.891 ± 0.008

Clc1ccc(Cl)c(Cl)c1 [1,2,4-trichlorobenzene]
Conditions | mass density, [3] [kg/m3] | refractive index, [4] | speed of sound, [3] [m/s] | viscosity, [3] [mPa·s]
298.15 K | 1448.41 ± 1.1 | 1.548 ± 0.0012 | 1272 ± 1.2 | 1.926 ± 0.012
303.15 K | 1442.43 ± 1.1 | 1.546 ± 0.0012 | 1256.4 ± 1.2 | 1.76 ± 0.012
308.15 K | 1436.45 ± 1.1 | 1.543 ± 0.0012 | 1240.9 ± 1.2 | 1.617 ± 0.011

Reference: the NIST ThermoML archive (doi:10.1007/s10765-011-1087-7)
